What was measured:
PI3 kinase alpha = PI3 kinase alpha (Homo sapiens, UniProt P42336); experiment: PI3K ATP depletion assay (Biological Method 1, Assay 3; KinaseGlo luminescence); format: biochemical; conditions: ATP depletion assay; read-out: PI3 Kinase Alpha, IC50
In short: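 Compound in DMSO was mixed with 10 nM PI3 kinase and 5 μg/mL phosphatidylinositol, and the reaction was started with 2 μM ATP. It ran to about 50% ATP depletion and was stopped with KinaseGlo.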

[1] = tested on: pSer473 Akt in A2780 cells; experiment: pSer473 Akt assay to monitor PI3K pathway in A2780 cells (Biological Method 2, MSD); format: cell-based; conditions: Homo sapiens; inhibition of Akt phosphorylation, A2780 cells
Method: In this method, an assay for measuring the PI3K-mediated pSer473-Akt status after treatment with representative inhibitor compounds of the invention is described.
A2780 cells were cultured in DMEM supplemented with 10% FBS. L-glutamine, sodium pyruvate, and antibiotics. Cells were plated in the same medium at a density of 15,000 cells per well into 96 well tissue culture plates, with outside wells vacant, and allowed to adhere overnight.
Test compounds supplied in DMSO were diluted further into DMSO at 500 times the desired final concentrations before dilution into culture media to 2 times the final concentrations. Equal volumes of 2× compounds were added to the cells in 96 well plates and incubated at 37° C. for one hour. The media and compounds were then removed, the plates chilled and cells lysed in a lysis buffer (150 mM NaCl, 20 mM Tris pH 7.5, 1 mM EDTA, 1 mM EGTA, 1% Triton X-100) supplemented with phosphatase and protease inhibitors. After thorough mixing, lysates were transferred to both pSer473Akt and total Akt assay plates from Meso Scale Discovery (MSD), and incubated overnight with shaking at 4° C.
The assays were read on a SECTOR Imager 6000 instrument (Meso Scale Discovery). Ratios of the signal from pSer473Akt and total Akt assays were used to correct for any variability and the percent inhibition of pSer473Akt from the total signal seen in cells treated with compound versus DMSO alone was calculated and used to determine EC50 values for each compound.

[2] = tested on: A2780 ovarian cancer cells; experiment: Cellular proliferation in A2780 cells, Cell Titer Glo (Biological Method 4); format: cell-based; conditions: Homo sapiens; ovarian cancer cell line A2780
In short: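 A2780 cells seeded at 1,000/well in DMEM with 10% FBS, at least 2 h before compound, then exposed 72 h at 37 °C, 5% CO2. Viable cells measured by Cell Titer Glo luminescence; EC50 calculated from duplicate conditions.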

PI3 kinase alpha, sequence (P42336 whole entry): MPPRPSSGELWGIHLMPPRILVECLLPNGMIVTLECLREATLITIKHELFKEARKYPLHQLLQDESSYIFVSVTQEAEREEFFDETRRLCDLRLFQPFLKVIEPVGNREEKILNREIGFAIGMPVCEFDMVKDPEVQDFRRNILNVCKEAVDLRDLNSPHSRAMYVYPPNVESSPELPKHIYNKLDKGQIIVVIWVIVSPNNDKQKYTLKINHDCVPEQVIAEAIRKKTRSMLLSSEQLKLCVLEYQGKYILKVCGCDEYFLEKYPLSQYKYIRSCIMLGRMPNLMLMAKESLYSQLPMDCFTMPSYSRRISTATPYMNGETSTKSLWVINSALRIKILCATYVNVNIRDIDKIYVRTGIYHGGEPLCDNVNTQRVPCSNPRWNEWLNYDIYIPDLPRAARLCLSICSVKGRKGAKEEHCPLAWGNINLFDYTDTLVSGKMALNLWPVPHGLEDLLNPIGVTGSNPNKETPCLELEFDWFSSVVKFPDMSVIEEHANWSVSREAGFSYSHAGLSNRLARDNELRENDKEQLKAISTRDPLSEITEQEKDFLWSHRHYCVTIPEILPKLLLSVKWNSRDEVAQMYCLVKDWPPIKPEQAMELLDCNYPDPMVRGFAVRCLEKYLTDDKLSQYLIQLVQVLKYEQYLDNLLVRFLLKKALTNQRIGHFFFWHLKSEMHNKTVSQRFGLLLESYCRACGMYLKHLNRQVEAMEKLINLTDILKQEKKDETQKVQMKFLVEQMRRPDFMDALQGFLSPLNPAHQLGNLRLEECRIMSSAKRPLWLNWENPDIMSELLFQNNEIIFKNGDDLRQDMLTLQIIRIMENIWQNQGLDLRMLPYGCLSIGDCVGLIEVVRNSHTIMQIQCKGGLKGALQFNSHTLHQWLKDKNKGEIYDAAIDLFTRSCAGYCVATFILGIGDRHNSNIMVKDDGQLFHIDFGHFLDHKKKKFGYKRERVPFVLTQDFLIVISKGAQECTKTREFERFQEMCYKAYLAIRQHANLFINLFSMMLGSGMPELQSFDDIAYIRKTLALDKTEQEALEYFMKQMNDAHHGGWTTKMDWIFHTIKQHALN
PI3 kinase alpha, sequence (P27986 whole entry partner): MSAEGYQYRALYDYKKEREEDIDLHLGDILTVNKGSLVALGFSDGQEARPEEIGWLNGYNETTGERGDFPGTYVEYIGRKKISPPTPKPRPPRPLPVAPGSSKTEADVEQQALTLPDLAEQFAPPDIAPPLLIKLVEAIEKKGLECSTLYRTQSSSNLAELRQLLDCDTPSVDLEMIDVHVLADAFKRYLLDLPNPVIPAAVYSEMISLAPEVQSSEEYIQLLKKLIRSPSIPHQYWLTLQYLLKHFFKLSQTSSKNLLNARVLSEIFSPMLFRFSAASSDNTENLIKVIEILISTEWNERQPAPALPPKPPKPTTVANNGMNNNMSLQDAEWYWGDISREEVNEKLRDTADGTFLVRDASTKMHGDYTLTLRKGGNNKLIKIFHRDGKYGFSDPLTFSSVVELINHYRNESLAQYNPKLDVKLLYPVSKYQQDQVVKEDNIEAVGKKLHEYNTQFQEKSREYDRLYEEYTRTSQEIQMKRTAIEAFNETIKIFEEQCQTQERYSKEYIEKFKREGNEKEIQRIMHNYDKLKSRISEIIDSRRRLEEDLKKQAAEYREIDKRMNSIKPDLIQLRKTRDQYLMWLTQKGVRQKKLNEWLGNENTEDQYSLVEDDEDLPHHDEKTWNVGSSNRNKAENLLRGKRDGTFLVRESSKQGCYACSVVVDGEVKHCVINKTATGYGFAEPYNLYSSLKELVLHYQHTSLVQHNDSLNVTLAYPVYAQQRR

Row | IC50 (PI3 kinase alpha) [µM] | EC50 [1] [µM] | EC50 [2] [µM] | SMILES
1 | < 1 | < 1 | < 1 | Nc1ccc(-c2cc(Nc3ccc4ncccc4c3)nc(N3CCOCC3)n2)cn1 [Compound 82]
2 | < 1 | < 1 | < 10 | NC(=O)c1ccc(Nc2cc(-c3ccc(N)nc3)nc(N3CCOCC3)n2)cc1 [Compound 197]
3 | < 1 | < 1 | < 1 | CCOc1cc(Nc2cc(-c3ccc(N)nc3)nc(N3CCOCC3)n2)ccn1 [Compound 102]
4 | < 1 | < 1 | < 1 | CC(C)N1CCC(Oc2ccc(Nc3cc(-c4cnc(N)cc4C(F)(F)F)nc(N4CCOCC4)n3)cn2)C1 (stereo not drawn) [Compound 93]
5 | < 1 | < 1 | < 1 | COC(=O)N1CCC[C@@H](Oc2cc(-c3cnc(N)nc3N)nc(N3CCOCC3)n2)C1 [Compound 63]
6 | < 1 | < 1 | < 25 | COc1ccnc(Nc2cc(-c3ccc(N)nc3)nc(N3CCOCC3)n2)c1 [Compound 148]
7 | < 1 | < 1 | < 10 | Nc1ccc(-c2cc(-c3cccnc3NCCO)nc(N3CCOCC3)n2)cn1 [Compound 104]
8 | < 1 | < 1 | < 1 | Nc1ncc(-c2cc(N3CCOC(c4ccccc4)C3)nc(N3CCOCC3)n2)cn1 (stereo not drawn) [Compound 15]
9 | < 1 | < 1 | < 1 | Nc1ncc(-c2cc(Nc3ccc(Oc4cccnc4)nc3)nc(N3CCOCC3)n2)cn1 [Compound 64]
10 | < 1 | < 1 | < 1 | Nc1ncc(-c2cc(OC3CCN(C(=O)OCc4ccccc4)CC3)nc(N3CCOCC3)n2)c(=O)[nH]1 [Compound 34]
11 | < 1 | < 1 | < 10 | CS(=O)(=O)c1ccc(Nc2cc(-c3cnc(N)cc3C(F)(F)F)nc(N3CCOCC3)n2)cn1 [Compound 128]
12 | < 1 | < 1 | < 10 | COC(=O)N1CCC[C@H](Oc2cc(-c3cnc(N)nc3N)nc(N3CCOCC3)n2)C1 [Compound 75]
13 | < 1 | < 1 | < 1 | CC(C)C(=O)N1CCC(Oc2cc(-c3cnc(N)[nH]c3=O)nc(N3CCOCC3)n2)CC1 [Compound 49]
14 | < 1 | < 1 | < 1 | COc1ccc2cc(Nc3cc(-c4cnc(N)nc4)nc(N4CCOCC4)n3)cnc2c1 [Compound 60]
15 | < 1 | < 1 | < 1 | CC(C)C(=O)N1CCC(Oc2cc(-c3cnc(N)nc3C(F)(F)F)nc(N3CCOCC3)n2)CC1 [Compound 106]
16 | < 1 | < 1 | < 1 | Cn1cnnc1-c1cccc(Nc2cc(-c3cnc(N)cc3C(F)(F)F)nc(N3CCOCC3)n2)c1 [Compound 171]
17 | < 1 | < 1 | < 10 | CC(=O)c1cccc(Nc2cc(-c3ccc(N)nc3)nc(N3CCOCC3)n2)c1 [Compound 174]
18 | < 1 | < 1 | < 1 | Nc1ncc(-c2cc(OC3CCN(C(=O)OC4CCCC4)CC3)nc(N3CCOCC3)n2)c(=O)[nH]1 [Compound 47]
19 | < 1 | < 1 | < 1 | CCN(CC)Cc1cnc(Nc2cc(-c3cnc(N)nc3C(F)(F)F)nc(N3CCOCC3)n2)s1 [Compound 40]
20 | < 1 | < 1 | < 1 | CC(C)OC(=O)N1CCC(Oc2cc(-c3cnc(N)nc3N)nc(N3CCOCC3)n2)CC1 [Compound 131]
21 | < 1 | < 1 | < 10 | N#Cc1cnccc1Nc1cc(-c2ccc(N)nc2)nc(N2CCOCC2)n1 [Compound 191]
22 | < 1 | < 1 | < 1 | Nc1ncc(-c2cc(O[C@@H]3CCOC3)nc(N3CCOCC3)n2)c(=O)[nH]1 [Compound 56]
23 | < 1 | < 1 | < 1 | CS(=O)(=O)c1ccc(Nc2cc(-c3cnc(N)nc3C(F)(F)F)nc(N3CCOCC3)n2)cn1 [Compound 78]

— patent US8217035B2, “Pyrimidine derivatives used as PI-3-kinase inhibitors” (Novartis AG, priority 2006, dated 2012)
